Test results taken from paper PMC12490239, “Combining BET inhibition with SMAC mimetics restricts tumor growth and triggers immune surveillance in preclinical cancer models” (Cell Reports Medicine, 2025).

Assays:
Test in all cases: cells
Design in all cases: CellTiter-Glo 2.0 luminescence proliferation/viability assay, single agents, human tumour cell line panel
NCI-H2030 = details: Homo sapiens, NCI-H2030, 96 h; single agent; read-out: IC50 SMACm
Method: (§1) The effect of BETi, SMACm alone or in combination cell viability was determined using a 96-h CellTiter-Glo2.0 proliferation assay. Cells were seeded in assay plates and placed at 37°C with 5% CO2 for twenty-four hours before treatment. Compounds were added in triplicate in gradients of increasing concentrations, in case of SMACm ranging between 4.5 nM and 10 μM and in case of BETi between 1.4 nM and 3 μM. DMSO served as control. Cell viability was measured by luminescence analysis using luminescence read on Envision plate readers (PerkinElmer). An additional set of colorectal cancer cell lines was assayed with technical duplicates and experimental triplicates. Cell viability was measured by luminescence analysis using luminescence read on Tecan Plate reader. The effects of drug combinations were analyzed using the Bliss Independence Model.[34] Synergy score was calculated by the average of 3 highest and 3 lowest BLISS Gaps between predicted and measured POC (Percentage of Control) values. To investigate the synergistic interaction between BI 894999 (hereafter, BETi) and BI 891065 (hereafter, SMACm), we evaluated the in vitro anti-tumor effect of the single agents or the combination in a large panel of 151 cancer cell lines of different tissue origin: CRC, gastric cancer, non-small cell lung cancer (NSCLC), and pancreatic carcinoma (Figures 1C–1F). As a mono-agent, SMACm was able to inhibit cell proliferation only in a limited number of tested cell lines (4%, Table S2). Most of the cell lines responded to inhibition by BETi, with sensitivity ranging from 10 to 100 nM (Figure 1C). Bliss Gap analysis, performed to analyze the effect of the BETi+SMACm combination on tumor cell growth (Figures 1D–1F), unveiled potent synergistic activity across the cell models tested (Figure 1E), independent of tumor type (Figure 1F).  Figure 1 The combinatorial effect of BI 894999 and BI 891065 across a panel of human tumor cell lines (A) Selectivity and potency profiles of BI 891065. Top left, structure of BI 891065. Top right, IC50 values for BI 891065 inhibition of cIAP1, cIAP2, and XIAP. Bottom, physicochemical properties of […]. (B) WES (Simple Western System) analysis of cIAP1, cIAP2, and XIAP levels upon treatment of HT-29 cells with indicated concentrations of BI 891065 for 6 h (C) IC50 values determined in cell proliferation assays (n = 151) individually for BETi BI 894999 and SMACm BI 891065. Each point represents a cell line tested. (D) Example of proliferation assay for synergy analysis in LoVo cell line; shown is combination plate map matrix and the cell growth inhibition (CGI) at the indicated concentrations; CGI values < 100%: tumor cell growth, CGI 100%: tumor cell stasis, and CGI > 100%: tumor cell killing. (E) Synergy scores across the tested panel of cell lines obtained using Bliss synergy analysis. (F) Violin plots showing the synergy scores for BETi and SMACm combination across indications. N is the number of cell lines tested in each indication group.

C10 = details: 96 h; single agent; read-out: IC50 SMACm
Method: as §1

RKO = details: Homo sapiens, RKO, 96 h; single agent; read-out: IC50 SMACm
Method: as §1

NCI-SNU-1 = details: 96 h; single agent; read-out: IC50 SMACm
Method: as §1

COLO-201 = details: Homo sapiens, COLO 201, 96 h; single agent; read-out: IC50 SMACm
Method: as §1

Calu-1 = details: Homo sapiens, Calu-1, 96 h; single agent; read-out: IC50 SMACm
Method: as §1

AsPC-1 = details: Homo sapiens, ASPC1, 96 h; single agent; read-out: IC50 SMACm
Method: as §1

HCC-15 = details: HCC15, 96 h; single agent; read-out: IC50 SMACm
Method: as §1

NCI-H23 = details: Homo sapiens, NCI-H23, 96 h; single agent; read-out: IC50 SMACm
Method: as §1

SNU-668 = details: SNU668, 96 h; single agent; read-out: IC50 SMACm
Method: as §1

JVE207 = details: 96 h; single agent; read-out: IC50 SMACm
Method: as §1

Calu-3 = details: Homo sapiens, Calu-3, 96 h; single agent; read-out: IC50 SMACm
Method: as §1

KP-4 = details: Homo sapiens, KP-4, 96 h; single agent; read-out: IC50 SMACm
Method: as §1

NCI-H1373 = details: Homo sapiens, NCI-H1373, 96 h; single agent; read-out: IC50 SMACm
Method: as §1

COLO60H = details: 96 h; single agent; read-out: IC50 SMACm
Method: as §1

CN[C@@H](C)C(=O)Nc1ccc(-c2c(-c3cccnc3OC)nc3cc(C)ccn23)c(C#Cc2ccc3c(C)nccc3c2)n1 [SMACm, BI 891065]
IC50 (NCI-H2030): 4.29 µM
IC50 (C10): 6.47 µM
IC50 (RKO): 5.07 µM
IC50 (NCI-SNU-1): 6.16 µM
IC50 (COLO-201): 0.369 µM
IC50 (Calu-1): 8.41 µM
IC50 (AsPC-1): > 10 µM
IC50 (HCC-15): 4.6 µM
IC50 (NCI-H23): 3.42 µM
IC50 (SNU-668): 6.29 µM
IC50 (JVE207): 7.2 µM
IC50 (Calu-3): 1.46 µM
IC50 (KP-4): 4.16 µM
IC50 (NCI-H1373): > 10 µM
IC50 (COLO60H): 4.37 µM
